According to patent US12104192B2, “Method of preparing primary amines from amino acids using enzymatic conversion” (KOREA ADVANCED INSTITUTE OF SCIENCE AND TECHNOLOGY, priority 2020, dated 2024):

Tested on: valine decarboxylase
Assay: Enzymatic activity assay of purified valine decarboxylase with amino acid substrates, HPLC detection of primary amine
Format: biochemical, Streptomyces viridifaciens
Details: 1 mM amino acid, 0.1 mM PLP, 150 μg purified his-tagged enzyme, 50 mM potassium phosphate buffer pH 7.5, 37° C., 2 hours
Description: An enzymatic activity assay was performed using a 50 mM potassium phosphate buffer (pH 7.5), and the substrate and enzyme used for the assay were added in the following amounts to the enzyme reaction solution.
Amino acids used as substrates were used at a concentration of 1 mM, and the amino acids used herein were L-alanine, L-2-aminobutyrate, 2-aminoisobutyrate, L-norvaline, L-valine, L-isovaline, L-norleucine, L-leucine, L-isoleucine, 1-aminocyclopentanecarboxylic acid, 1-aminocyclohexanecarboxylic acid, and L-2-phenylglycine. 0.1 mM pyridoxal phosphate (PLP) and 150 μg of the purified valine decarboxylase were added, followed by conducting reaction at 37° C. for 2 hours, and the sample after the reaction was analyzed by HPLC to identify primary amine.
Primary amine production was analyzed using HPLC (1100 Series HPLC; Agilent Technologies, Santa Clara, CA). The primary amine derivatization for analysis was performed in an automatic manner before analysis using an o-phthaldialdehyde (OPA; Sigma, St. Louis, MO) reagent. The OPA reagent for derivatization was prepared by dissolving 0.20 g of OPA reagent in 9.0 mL of methanol and then adding 1.0 mL of 0.40 M (pH 9.0) borate buffer and 160 μL of 2-mercaptoethanol thereto. For derivatization, 1 μL of the sample was mixed with 5 μL of 0.40 M (pH 9.0) borate buffer. Then, 1 μL of the OPA reagent for derivatization prepared above was added thereto, followed by HPLC analysis. Analysis was performed at 25° C. using an Eclipse plus C18 column (4.6×150 mm; Agilent Technologies). Solvent A for analysis was prepared by mixing 1.4 g/L of Na2HPO4 and 3.8 g/L of Na2B4O7·10H2O with 8 mg/L of NaN3, and adjusting the final pH of the resulting mixture to 7.2 using HCl. Solvent B was prepared by mixing 45% acetonitrile and 45% methanol with 10% H2O based on volume %. The solvent was fed at a rate of 2 mL/min. […] The derivatized secondary amines could be analyzed by detecting light with a wavelength of 230 nm using a variable wavelength detector (G1314A; Agilent Technologies).

Conversion of the amino acid substrate to the corresponding primary amine by valine decarboxylase, successfully converted:
NC1(C(=O)O)CCCCC1 [1-aminocyclohexanecarboxylic acid]
NC1(C(=O)O)CCCC1 [1-aminocyclopentanecarboxylic acid]
CC(C)(N)C(=O)O [2-aminobutyrate, 2-aminoisobutyrate]
N[C@H](C(=O)O)c1ccccc1 [L-2-phenylglycine]
C[C@H](N)C(=O)O [L-alanine]
CC[C@H](C)[C@H](N)C(=O)O [L-isoleucine]
CC[C@](C)(N)C(=O)O [L-isovaline]
CC(C)C[C@H](N)C(=O)O [L-leucine]
CCCC[C@H](N)C(=O)O [L-norleucine]
CCC[C@H](N)C(=O)O [L-norvaline]
CC(C)[C@H](N)C(=O)O [L-valine]
L-2-aminobutyrate
